# Assay results published in patent publication US8399520B2, “Selective estrogen receptor modulator” (Eisai R&D Management Co., Ltd., priority 2002, dated 2013).
# Molecular target: T1, estrogen receptor derived from bovine uterus (Bos taurus, UniProt P49884)
# T1 construct: estrogen receptor derived from bovine uterus was diluted with the assay buffer solution so that 10 to 20 μg total protein was present; from tissue; host or cells: bovine uterus
# T1 sequence (P49884 1-596): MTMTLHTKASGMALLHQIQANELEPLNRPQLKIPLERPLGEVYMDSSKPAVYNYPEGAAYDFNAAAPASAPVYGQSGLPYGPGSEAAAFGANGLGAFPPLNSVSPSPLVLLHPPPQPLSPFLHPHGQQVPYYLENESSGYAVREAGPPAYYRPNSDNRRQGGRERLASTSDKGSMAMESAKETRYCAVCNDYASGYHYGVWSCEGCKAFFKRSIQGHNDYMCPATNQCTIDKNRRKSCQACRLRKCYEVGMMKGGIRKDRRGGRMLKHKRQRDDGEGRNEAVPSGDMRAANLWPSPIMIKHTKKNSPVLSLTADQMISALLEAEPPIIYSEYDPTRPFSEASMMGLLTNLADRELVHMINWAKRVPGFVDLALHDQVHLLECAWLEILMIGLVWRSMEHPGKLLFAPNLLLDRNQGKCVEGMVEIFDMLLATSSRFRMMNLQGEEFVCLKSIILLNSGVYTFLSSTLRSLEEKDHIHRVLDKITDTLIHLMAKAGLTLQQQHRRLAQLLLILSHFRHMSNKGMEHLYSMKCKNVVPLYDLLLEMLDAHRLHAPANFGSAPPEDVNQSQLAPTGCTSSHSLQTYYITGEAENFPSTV
# Assay: In vitro estrogen receptor binding assay
# Conditions: read-out: Estrogen receptor binding affinity: Ki
# Experimental: The binding affinity of the compound according to the present invention to estrogen receptor was measured using an in vitro estrogen receptor binding assay. The binding affinity measures the ability of the compound according to the present invention to remove [^3H]-estradiol from estrogen receptor derived from bovine uterus. The following materials were used in this assay: (1) the assay buffer solution was 20 mM Tris/HCl (pH 7.5) containing 1 mM dithiothreitol (DTT), 1 mM EDTA and 10% glycerol; (2) radioactive ligand was [^3H]-estradiol purchased from Amersham Life Science; (3) the cold ligand was diethylstilbestrol purchased from sigma (Sigma); and (4) the estrogen receptor was derived from bovine uterus. The compound to be tested was prepared as a 10% DMSO solution. [^3H]-estradiol was dissolved in the assay buffer solution so as to obtain a final concentration of 1 nM. […] Each plate contains total binding, non-specific binding and the binding which were not inhibited by various concentrations of the compound. The plate was incubated for 1 hour at room temperature. […] These mixtures were centrifuged, and the supernatant thereof was evaluated for its radioactivity using a liquid scintillation counter. Specific binding was calculated by subtracting non-specific binding dpm (counts remaining in the supernatant obtained by centrifugal separation of a reaction mixture containing estrogen receptor derived from bovine uterus, radioactive ligand and excess cold ligand) from the total binding dpm (counts remaining in the supernatant obtained by centrifugal separation of a reaction mixture containing estrogen receptor derived from bovine uterus and radioactive ligand only). The effectiveness of the compound was evaluated by Ki. […] C is the concentration of [^3H]-estradiol in the reaction mixture, and Kd is the [^3H]-estradiol dissociation constant. The Kd was determined by Scatchard analysis. That is to say, various concentrations of [^3H]-estradiol were used to measure the concentration of specifically bound [^3H]-estradiol, which served as the horizontal axis, the value which was obtained by dividing the concentration of specifically bound [^3H]-estradiol by the concentration [^3H]-estradiol not bound to the receptor served as the vertical axis to produce a plot, and the negative value of the inverse of the slope of the resulting straight line was used as Kd.
row,Structure (SMILES),Ki
1,"Oc1ccc(-c2nc3ccc(O)cc3s2)c(NCc2ccc(OCCN3CCCCC3)cc2)c1 [Example 319, 2-{4-Hydroxy-2-[4-(2-piperidin-1-ylethoxy)benzylamino]phenyl}benzothiazol-6-ol]",1.6 nM
2,"Oc1ccc2c(c1)CCC(c1ccc(O)cc1NCc1ccc(OCCN3CCCCC3)cc1)=C2 [Example 130, 6-{4-Hydroxy-2-[4-(2-piperidin-1-ylethoxy)benzylamino]phenyl}-7,8-dihydronaphthalen-2-ol]",8.2 nM
3,"COCCN(Cc1ccc(OCCN2CCCCC2)c(F)c1)c1cc(O)ccc1C1CCc2cc(O)ccc2C1 (centres unmarked) [Example 183, 6-{2-{[3-Fluoro-4-(2-piperidin-1-ylethoxy)benzyl](2-methoxyethyl)amino}-4-hydroxyphenyl}-5,6,7,8-tetrahydronaphthalen-2-ol]",18 nM
4,"CCN(Cc1ccc(OCCN2CCCCC2)c(F)c1)c1cc(O)ccc1-c1cc2ccc(O)cc2s1 [Example 322, 2-{2-{Ethyl[3-fluoro-4-(2-piperidin-1-ylethoxy)benzyl]amino}-4-hydroxyphenyl}benzo[b]thiophen-6-ol]",3.1 nM
5,"CC(C)N(CCOc1ccc(CCc2cc(O)ccc2C2CCc3cc(O)ccc3C2)cc1)C(C)C (centres unmarked) [Example 357, 6-{2-{2-[4-(2-Diisopropylaminoethoxy)phenyl]ethyl}-4-hydroxyphenyl}-5,6,7,8-tetrahydronaphthalen-2-ol]",8.2 nM
6,"Oc1ccc2c(c1)CCC(c1ccc(O)cc1N(Cc1ccc(OCCN3CCCCCC3)cc1)CC(F)(F)F)C2 (centres unmarked) [Example 179, 6-{2-{[4-(2-Azepan-1-ylethoxy)benzyl](2,2,2-trifluoroethyl)amino}-4-hydroxyphenyl}-5,6,7,8-tetrahydronaphthalen-2-ol]",9 nM
7,"CCN(Cc1ccc(OC2CC3CCC(C2)N3C)c(F)c1)c1cc(O)ccc1C1CCc2cc(O)ccc2C1 (centres unmarked) [Example 367, 6-{2-{Ethyl[3-fluoro-4-(8-methyl-8-azabicyclo[3.2.1]oct-3-yloxy)benzyl]amino}-4-hydroxyphenyl}-5,6,7,8-tetrahydronaphthalen-2-ol]",1.8 nM
8,"CCN(Cc1ccc(OCCN2CCCCCC2)cc1)c1cc(O)ccc1C1CCCc2cc(O)ccc2C1 (centres unmarked) [Example 298, 6-{2-{[4-(2-Azepan-1-ylethoxy)benzyl]ethylamino}-4-hydroxyphenyl}-6,7,8,9-tetrahydro-5H-benzocyclohepten-2-ol]",13 nM
9,"CCN(Cc1ccc(OCCN2CCCCCC2)cc1)c1cc(O)ccc1C1CCN(c2cccc(O)c2)C1 (centres unmarked) [Example 329, 3-{[4-(2-Azepan-1-ylethoxy)benzyl]ethylamino}-4-[1-(3-hydroxyphenyl)pyrrolidin-3-yl]phenol]",94 nM
10,"CCn1ccc2c(O)ccc(C3CCc4cc(O)ccc4C3)c21 (centres unmarked) [Example 55, 1-Ethyl-7-(6-hydroxy-1,2,3,4-tetrahydronaphthalen-2-yl)-1H-indol-4-ol]",84 nM
11,"CCN(CC)c1cc(O)ccc1C1CCc2cc(O)ccc2C1 (centres unmarked) [Example 44, 6-(2-Diethylamino-4-hydroxyphenyl)-5,6,7,8-tetrahydronaphthalen-2-ol]",21 nM
12,"CN(CCc1ccc(O)cc1)c1cc(O)ccc1C1CCc2cc(O)ccc2C1 (centres unmarked) [Example 48, 6-{4-Hydroxy-2-{[2-(4-hydroxyphenyl)ethyl]methylamino}phenyl}-5,6,7,8-tetrahydronaphthalen-2-ol]",13 nM
13,"CCNCCOc1ccc(CN(CC)c2cc(O)ccc2C2CCc3cc(O)ccc3C2)cc1 (centres unmarked) [Example 379, 6-{2-{Ethyl[4-(2-ethylaminoethoxy)benzyl]amino}-4-hydroxyphenyl}-5,6,7,8-tetrahydronaphthalen-2-ol]",1.1 nM
14,"OCCN(Cc1ccc(OCCN2CCCCCC2)cc1)c1cc(O)ccc1C1CCc2cc(O)ccc2C1 (centres unmarked) [Example 177, 6-{2-{[4-(2-Azepan-1-ylethoxy)benzyl](2-hydroxyethyl)amino}-4-hydroxyphenyl}-5,6,7,8-tetrahydronaphthalen-2-ol]",18 nM
15,"Oc1ccc2c(c1)CCN(c1cc(O)ccc1Cc1ccc(OCCN3CCCCC3)cc1)CC2 [Example 21, 3-{5-Hydroxy-2-[4-(2-piperidin-1-ylethoxy)benzyl]phenyl}-2,3,4,5-tetrahydro-1H-benz[d]azepin-7-ol]",47 nM
16,"O=C(c1ccc(OCCN2CCCCC2)cc1)c1cc(O)ccc1-c1ccc2cc(O)ccc2c1 [Example 8, [5-Hydroxy-2-(6-hydroxynaphthalen-2-yl)phenyl][4-(2-piperidin-1-yl-ethoxy)phenyl]methanone]",0.64 nM
17,"O=c1cccc(C2=Cc3ccc(O)cc3CCC2)n1Cc1ccc(OCCN2CCCCCC2)cc1 [Example 15, 1-[4-(2-Azepan-1-ylethoxy)benzyl]-6-(2-hydroxy-8,9-dihydro-7H-benzocyclohepten-6-yl)-1H-pyridin-2-one]",60 nM
18,"CCN1CCN(CCOc2ccc(CN(CC)c3cc(O)ccc3C3CCc4cc(O)ccc4C3)cc2)CC1 (centres unmarked) [Example 373, 6-{2-{Ethyl{4-[2-(4-ethylpiperazin-1-yl)ethoxy]benzyl}amino}-4-hydroxyphenyl}-5,6,7,8-tetrahydronaphthalen-2-ol]",5 nM
19,"Oc1ccc(/C=C/c2ccc(O)cc2NCc2ccc(OCCN3CCCCC3)c(F)c2)cc1 [Example 349, 3-[3-Fluoro-4-(2-piperidin-1-ylethoxy)benzylamino]-4-[2-(4-hydroxyphenyl)vinyl]phenol]",16 nM
20,"CC1(C)c2ccc(O)cc2CCC1c1ccc(O)cc1Nc1ccc(OCCN2CCCCC2)c(F)c1 (centres unmarked) [Example 305, 6-{2-[3-Fluoro-4-(2-piperidin-1-ylethoxy)phenylamino]-4-hydroxyphenyl}-5,5-dimethyl-5,6,7,8-tetrahydronaphthalen-2-ol]",8.6 nM
21,"CCN(Cc1ccc(OCCN2CCCCCC2)cc1)c1cccc(C)c1C1CCc2cc(O)ccc2C1 (centres unmarked) [Example 293, 6-{2-{[4-(2-Azepan-1-ylethoxy)benzyl]ethylamino}-6-methylphenyl}-5,6,7,8-tetrahydronaphthalen-2-ol]",32 nM
22,"CN(Cc1ccc(OCCN2CCCCC2)cc1)c1cc(O)ccc1-c1ccc2cc(O)ccc2c1 [Example 113, 6-{4-Hydroxy-2-{methyl[4-(2-piperidin-1-ylethoxy)benzyl]amino}phenyl}naphthalen-2-ol]",1.6 nM
23,"CCN(Cc1ccc(OCCN2CCCCC2)cc1)c1cc(O)ccc1CC1CCc2cc(O)ccc2C1 (centres unmarked) [Example 791, 6-{2-{Ethyl[4-(2-piperidin-1-ylethoxy)benzyl]amino}-4-hydroxybenzyl}-5,6,7,8-tetrahydronaphthalen-2-ol]",9.8 nM
24,"Oc1ccc2c(c1)CCC(c1ccc(O)cc1N1Cc3ccc(OCCN4CCCCC4)cc3C1)C2 (centres unmarked) [Example 338, 6-{4-Hydroxy-2-[5-(2-piperidin-1-ylethoxy)-1,3-dihydroisoindol-2-yl]phenyl}-5,6,7,8-tetrahydronaphthalen-2-ol]",22 nM
25,"CC(C)(Cc1ccc(O)cc1Oc1ccc(OCCN2CCCCC2)cc1)c1ccc(O)cc1 [Example 776, 4-[2-(4-Hydroxyphenyl)-2-methylpropyl]-3-[4-(2-piperidin-1-ylethoxy)phenoxy]phenol]",6.3 nM
26,"CCN(Cc1ccc(OCCN2CCCCC2)c(F)c1)c1cc(O)ccc1[C@@H]1CCc2cc(O)ccc2C1 [188 (R), (R)-6-{2-{ethyl-[3-fluoro-4-(2-piperidin-1-ylethoxy)benzyl]amino}-4-hydroxyphenyl}-5,6,7,8-tetrahydronaphthalen-2-ol]",1.2 nM
27,"ON=C1CCc2cc(-c3ccc(O)cc3Nc3ccc(OCCN4CCCCC4)cc3)ccc21 [Example 327, 5-{4-Hydroxy-2-[4-(2-piperidin-1-ylethoxy)phenylamino]phenyl}indan-1-one oxime]",42 nM
28,"CCN(Cc1ccccc1)c1cc(O)ccc1C1CCc2cc(O)ccc2C1 (centres unmarked) [Example 45, 6-[2-(Benzylethylamino)-4-hydroxyphenyl]-5,6,7,8-tetrahydronaphthalen-2-ol]",8.4 nM
29,"CCN(Cc1ccncc1)c1cc(O)ccc1C1CCc2cc(O)ccc2C1 (centres unmarked) [Example 54, 6-{2-[Ethyl(pyridin-4-ylmethyl)amino]-4-hydroxyphenyl}-5,6,7,8-tetrahydronaphthalen-2-ol]",32 nM
